Assay results taken from patent US20230203081A1, “LINCOSAMIDE ANTIBIOTICS AND USES THEREOF” (President and Fellows of Harvard College, priority 2020, published 2023).
In brackets after ≈: the same amount, converted by molar mass. Like-named read-outs stand apart in the source and are kept apart here.

Experiments:
Type in all cases: cell-based
[1] = tested on: S. aureus cErmA; assay: MIC (broth microdilution or agar dilution, CLSI); settings: Staphylococcus aureus; S. aureus cErmA; read-out: MIC
Protocol: (§1) Minimum inhibitory concentrations (MICs) were determined by broth microdilution method or agar dilution method following the Clinical and Laboratory Standards Institute guidelines. Standard bacterial strains were obtained from American Type Culture Collection (ATCC). Other bacterial strains were obtained from hospitals and commercial sources, so noted in Table 11. Before the start of the MIC experiment, standard and test compound stock solutions were prepared in dimethyl sulfoxide (DMSO, Aldrich D2650) at a stock concentration of 5,120 μg/mL. The compound concentration range typically employed for each experiment was 128-0.06 μg/mL (2.5% final DMSO concentration). Clindamycin was used as a comparator in all experiments and each experiment was performed in triplicate. Specialized procedures were employed for streptococcal and anaerobic strains. All other bacterial strains were sub-cultured on blood agar plates (tryptic soy agar with 5% sheep blood, Hardy Diagnostics) and incubated overnight at 35° C. Organisms were suspended in cation-adjusted Mueller-Hinton broth (CaMHB, BD 212322) and optical density was adjusted to 0.5 McFarland standard. Suspensions were further diluted to obtain a final inoculum of 5×10^5 CFU/mL for broth microdilution experiments.

[2] = tested on: E. faecium Clinical VRE; assay: MIC (broth microdilution or agar dilution, CLSI); settings: Enterococcus faecium; E. faecium Clinical VRE; read-out: MIC
Protocol: as §1

[3] = tested on: E. coli ΔTolC; assay: microbe, parasite or virus in culture; settings: Escherichia coli
Protocol: (§2) Minimum inhibitory concentrations (MICs) were determined by broth microdilution method or agar dilution method following the Clinical and Laboratory Standards Institute guidelines. Standard bacterial strains were obtained from American Type Culture Collection (ATCC). Other bacterial strains were obtained from hospitals and commercial sources, so noted in Table 11. […] Specialized procedures were employed for streptococcal and anaerobic strains. All other bacterial strains were sub-cultured on blood agar plates (tryptic soy agar with 5% sheep blood, Hardy Diagnostics) and incubated overnight at 35° C. […] Suspensions were further diluted to obtain a final inoculum of 5×10^5 CFU/mL for broth microdilution experiments.

[4] = tested on: S. pneumoniae ATCC 49619; assay: MIC (broth microdilution or agar dilution, CLSI); settings: Streptococcus pneumoniae, read-out: MIC
Protocol: as §2

[5] = tested on: S. aureus ATCC 29213; assay: MIC (broth microdilution or agar dilution, CLSI); settings: Staphylococcus aureus, read-out: MIC
Protocol: as §2

[6] = tested on: K. oxytoca Clinical; assay: MIC (broth microdilution or agar dilution, CLSI); settings: Klebsiella oxytoca, read-out: MIC
Protocol: as §2

[7] = tested on: E. faecalis ATCC 29212; assay: MIC (broth microdilution or agar dilution, CLSI); settings: Enterococcus faecalis, read-out: MIC
Protocol: as §2

[8] = tested on: E. coli LptD; assay: MIC (broth microdilution or agar dilution, CLSI); settings: Escherichia coli, read-out: MIC
Protocol: as §2

[9] = tested on: S. pyogenes ATCC 19615; assay: MIC (broth microdilution or agar dilution, CLSI); settings: Streptococcus pyogenes, read-out: MIC
Protocol: as §2

[10] = tested on: E. coli ATCC 25922; assay: MIC (broth microdilution or agar dilution, CLSI); settings: Escherichia coli, ATCC25922, read-out: MIC
Protocol: as §2

[11] = tested on: broad panel of different clinical isolates; assay: microbe, parasite or virus in culture
Protocol: as §2

[12] = tested on: S. aureus ATCC BAA-1707 (MRSA); assay: MIC (broth microdilution or agar dilution, CLSI); settings: Staphylococcus aureus; S. aureus HAV#016, ATCC BAA-1707; MRSA; read-out: MIC
Protocol: as §2

[13] = tested on: S. aureus BAA 977 iErmA; assay: microbe, parasite or virus in culture; settings: Staphylococcus aureus, BAA-977 / MRSA
Protocol: as §2

[14] = tested on: S. aureus MMX 3035 cErmA; assay: MIC (broth microdilution or agar dilution, CLSI); settings: Staphylococcus aureus, MMX3035CERMA; S. aureus HAV#031, MMX 3035; cErmA; read-out: MIC
Protocol: as §2

[15] = ATCC49619, S. pneumoniae ATCC 49619
[16] = ATCC29213, S. aureus ATCC 29213
[17] = ATCC29212, E. faecalis ATCC 29212
[18] = ATCC19615, S. pyogenes ATCC 19615
[19] = Enterococcus faecium, VRE, E. faecium HAV#326, Clinical
[20] = ATCC49619, S. pneumoniae HAV#003, ATCC 49619
[21] = ATCC29213, S. aureus HAV#001, ATCC 29213, MP-549
[22] = ATCC29212, E. faecalis HAV#005, ATCC 29212
[23] = ATCC19615, S. pyogenes HAV#004, ATCC 19615

CSC1O[C@H]([C@H](NC(=O)[C@H]2NC[C@@H]3C[C@H](CCCF)CCO[C@H]32)[C@H](C)Cl)C(O)C(O)[C@H]1O (some centres unmarked) [FSA-12-03-035]
MIC [1]: 8 µg/mL (≈ 16 µM) | MIC [2]: 4 µg/mL (≈ 8.02 µM) | MIC ([3]; E. coli ΔTolC): 4 µg/mL (≈ 8.02 µM) | MIC [4, 15]: 0.06 µg/mL (≈ 0.12 µM) | MIC [5, 16]: 0.125 µg/mL (≈ 0.25 µM) | MIC ([6]; K. oxytoca Clinical): 4 µg/mL (≈ 8.02 µM) | MIC [7, 17]: 0.25 µg/mL (≈ 0.501 µM) | MIC ([8]; E. coli LptD): 4 µg/mL (≈ 8.02 µM) | MIC [9, 18]: 0.06 µg/mL (≈ 0.12 µM) | MIC ([10]; E. coli ATCC 25922): 8 µg/mL (≈ 16 µM)

CSC1O[C@H]([C@H](NC(=O)[C@H]2NC[C@@H]3C[C@H](CCCCl)CCO[C@H]32)[C@H](C)Cl)C(O)C(O)[C@H]1O (some centres unmarked) [FSA-12-03-042]
MIC [1]: 16 µg/mL (≈ 31 µM) | MIC [2]: 4 µg/mL (≈ 7.76 µM) | MIC ([3]; E. coli ΔTolC): 0.5 µg/mL (≈ 0.97 µM) | MIC [4, 15]: 0.06 µg/mL (≈ 0.116 µM) | MIC [5, 16]: 0.125 µg/mL (≈ 0.242 µM) | MIC ([6]; K. oxytoca Clinical): 8 µg/mL (≈ 15.5 µM) | MIC [7, 17]: 0.125 µg/mL (≈ 0.242 µM) | MIC ([8]; E. coli LptD): 2 µg/mL (≈ 3.88 µM) | MIC [9, 18]: 0.06 µg/mL (≈ 0.116 µM) | MIC ([10]; E. coli ATCC 25922): 8 µg/mL (≈ 15.5 µM)

CSC1O[C@H]([C@H](NC(=O)[C@H]2NC[C@@H]3C[C@H](CCC(F)F)CCO[C@H]32)[C@H](C)Cl)C(O)C(O)[C@H]1O (some centres unmarked) [FSA-12-03-055]
MIC [1]: 16 µg/mL (≈ 30.9 µM) | MIC [2]: 8 µg/mL (≈ 15.5 µM) | MIC ([3]; E. coli ΔTolC): 1 µg/mL (≈ 1.93 µM) | MIC [4, 15]: 0.06 µg/mL (≈ 0.116 µM) | MIC [5, 16]: 0.125 µg/mL (≈ 0.242 µM) | MIC ([6]; K. oxytoca Clinical): 16 µg/mL (≈ 30.9 µM) | MIC [7, 17]: 0.25 µg/mL (≈ 0.484 µM) | MIC ([8]; E. coli LptD): 4 µg/mL (≈ 7.74 µM) | MIC [9, 18]: 0.06 µg/mL (≈ 0.116 µM) | MIC ([10]; E. coli ATCC 25922): 16 µg/mL (≈ 30.9 µM)

CCC[C@@H]1C[C@@H](C(=O)N[C@@H]([C@H]2O[C@H](SC)[C@H](O)[C@@H](O)[C@H]2O)[C@@H](C)O)N(C)C1 [Lincomycin]
MIC [11, 19]: 16 µg/mL (≈ 39.4 µM) | MIC ([3]; E. coli HAV#038, ΔTolC): 128 µg/mL (≈ 315 µM) | MIC [12]: 0.25 µg/mL (≈ 0.615 µM) | MIC [4, 20]: 1 µg/mL (≈ 2.46 µM) | MIC [5, 21]: 0.5 µg/mL (≈ 1.23 µM) | MIC ([6]; K. oxytoca HAV#450, Clinical): > 256 µg/mL | MIC [7, 22]: 32 µg/mL (≈ 78.7 µM) | MIC ([8]; E. coli HAV#040, LptD): 64 µg/mL (≈ 157 µM) | MIC [9, 23]: 0.5 µg/mL (≈ 1.23 µM) | MIC ([10]; E. coli HAV#006, ATCC 25922): > 256 µg/mL

CN(C)c1ccc(O)c2c1C[C@H]1C[C@H]3[C@H](N(C)C)C(O)=C(C(N)=O)C(=O)[C@@]3(O)C(O)=C1C2=O [Minocycline]
MIC [11, 19]: 0.125 µg/mL (≈ 0.273 µM) | MIC ([3]; E. coli HAV#038, ΔTolC): ≤ 0.0125 µg/mL | MIC [13]: 0.25 µg/mL (≈ 0.546 µM) | MIC [12]: 0.25 µg/mL (≈ 0.546 µM) | MIC [5, 21]: 0.25 µg/mL (≈ 0.546 µM) | MIC [7, 22]: 4 µg/mL (≈ 8.74 µM) | MIC ([8]; E. coli HAV#040, LptD): 0.25 µg/mL (≈ 0.546 µM) | MIC ([10]; E. coli HAV#006, ATCC 25922): 0.5 µg/mL (≈ 1.09 µM)

CS(=O)(=O)c1ccc([C@@H](O)[C@@H](CO)NC(=O)C(Cl)Cl)cc1 [Thiamphenicol]
MIC ([11]; Enterococcus faecalis, VRE, E. faecalis HAV#251, Clinical VRE): 8 µg/mL (≈ 22.5 µM) | MIC ([11]; Klebsiella pneumoniae, K. pneumoniae HAV#041, Clinical, KPC): > 64 µg/mL | MIC ([3]; E. coli HAV#038, ΔTolC): 16 µg/mL (≈ 44.9 µM) | MIC [4, 20]: 2 µg/mL (≈ 5.61 µM) | MIC [5, 21]: 32 µg/mL (≈ 89.8 µM) | MIC ([6]; K. oxytoca HAV#450, Clinical): 64 µg/mL (≈ 180 µM) | MIC [14]: 32 µg/mL (≈ 89.8 µM) | MIC [7, 22]: 16 µg/mL (≈ 44.9 µM) | MIC ([8]; E. coli HAV#040, LptD): 32 µg/mL (≈ 89.8 µM) | MIC [9, 23]: 4 µg/mL (≈ 11.2 µM) | MIC ([10]; E. coli HAV#006, ATCC 25922): 64 µg/mL (≈ 180 µM)
